{"source": "patent US5972932A", "about": "“Anesthetic method and composition” (Eli Lilly and Company, priority 1997, dated 1999)", "key": {"[1]": {"system": "muscarinic cholinergic receptor", "assay": "pharmacological studies, muscarinic cholinergic receptor activity"}, "[2]": {"system": "5-HT2C (formorly knowm as 5-HT1C receptor) receptor", "assay": "pharmacological studies, 5-HT2C receptor activity", "details": "formerly 5-HT1C receptor"}}}
{"smiles": "Cc1cc2c(s1)Nc1ccccc1N=C2N1CCN(C)CC1", "note": "[olanzapine, 2-methyl-4-(4-methyl-1-piperazinyl)-10H-thieno[2,3-b][1,5]benzodiazepine]", "values": [{"measurement": "muscarinic cholinergic receptor activity", "setting": "[1]", "result": "has muscarinic cholinergic receptor activity"}, {"measurement": "activity at the 5-HT2C receptor", "setting": "[2]", "result": "active"}]}
